Patent publication US12187742B2 (XRAD Therapeutics, Inc., priority 2018, dated 2025)
Counter-ions that a name gives are not always drawn.

Tests used:
[1] = target: DNA-PK (Homo sapiens (Human), UniProt P78527); assay: DNA-PK Enzyme-Linked Immunosorbent Assay (phosphorylation of GST-p53 (1-101) peptide); assay type: biochemical; details: ELISA
Outline: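 ELISA with plate-bound GST-p53 (1-101) phosphorylated by DNA-PK (0.1 μg/mL final) with 20 μM ATP for 1 h at 25 °C. Compounds tested over 10 3-fold doses from 100 nM top final. Phospho-p53 Ser15 detected by antibody, HRP and TMB, absorbance at 450 nm.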

[2] = target: ATM (Homo sapiens (Human), UniProt Q13315); assay: ATM in Cell Western Assay (pKAP1 in etoposide-treated MCF-7 cells); assay type: cell-based
Chain of ATM (Q13315 whole entry): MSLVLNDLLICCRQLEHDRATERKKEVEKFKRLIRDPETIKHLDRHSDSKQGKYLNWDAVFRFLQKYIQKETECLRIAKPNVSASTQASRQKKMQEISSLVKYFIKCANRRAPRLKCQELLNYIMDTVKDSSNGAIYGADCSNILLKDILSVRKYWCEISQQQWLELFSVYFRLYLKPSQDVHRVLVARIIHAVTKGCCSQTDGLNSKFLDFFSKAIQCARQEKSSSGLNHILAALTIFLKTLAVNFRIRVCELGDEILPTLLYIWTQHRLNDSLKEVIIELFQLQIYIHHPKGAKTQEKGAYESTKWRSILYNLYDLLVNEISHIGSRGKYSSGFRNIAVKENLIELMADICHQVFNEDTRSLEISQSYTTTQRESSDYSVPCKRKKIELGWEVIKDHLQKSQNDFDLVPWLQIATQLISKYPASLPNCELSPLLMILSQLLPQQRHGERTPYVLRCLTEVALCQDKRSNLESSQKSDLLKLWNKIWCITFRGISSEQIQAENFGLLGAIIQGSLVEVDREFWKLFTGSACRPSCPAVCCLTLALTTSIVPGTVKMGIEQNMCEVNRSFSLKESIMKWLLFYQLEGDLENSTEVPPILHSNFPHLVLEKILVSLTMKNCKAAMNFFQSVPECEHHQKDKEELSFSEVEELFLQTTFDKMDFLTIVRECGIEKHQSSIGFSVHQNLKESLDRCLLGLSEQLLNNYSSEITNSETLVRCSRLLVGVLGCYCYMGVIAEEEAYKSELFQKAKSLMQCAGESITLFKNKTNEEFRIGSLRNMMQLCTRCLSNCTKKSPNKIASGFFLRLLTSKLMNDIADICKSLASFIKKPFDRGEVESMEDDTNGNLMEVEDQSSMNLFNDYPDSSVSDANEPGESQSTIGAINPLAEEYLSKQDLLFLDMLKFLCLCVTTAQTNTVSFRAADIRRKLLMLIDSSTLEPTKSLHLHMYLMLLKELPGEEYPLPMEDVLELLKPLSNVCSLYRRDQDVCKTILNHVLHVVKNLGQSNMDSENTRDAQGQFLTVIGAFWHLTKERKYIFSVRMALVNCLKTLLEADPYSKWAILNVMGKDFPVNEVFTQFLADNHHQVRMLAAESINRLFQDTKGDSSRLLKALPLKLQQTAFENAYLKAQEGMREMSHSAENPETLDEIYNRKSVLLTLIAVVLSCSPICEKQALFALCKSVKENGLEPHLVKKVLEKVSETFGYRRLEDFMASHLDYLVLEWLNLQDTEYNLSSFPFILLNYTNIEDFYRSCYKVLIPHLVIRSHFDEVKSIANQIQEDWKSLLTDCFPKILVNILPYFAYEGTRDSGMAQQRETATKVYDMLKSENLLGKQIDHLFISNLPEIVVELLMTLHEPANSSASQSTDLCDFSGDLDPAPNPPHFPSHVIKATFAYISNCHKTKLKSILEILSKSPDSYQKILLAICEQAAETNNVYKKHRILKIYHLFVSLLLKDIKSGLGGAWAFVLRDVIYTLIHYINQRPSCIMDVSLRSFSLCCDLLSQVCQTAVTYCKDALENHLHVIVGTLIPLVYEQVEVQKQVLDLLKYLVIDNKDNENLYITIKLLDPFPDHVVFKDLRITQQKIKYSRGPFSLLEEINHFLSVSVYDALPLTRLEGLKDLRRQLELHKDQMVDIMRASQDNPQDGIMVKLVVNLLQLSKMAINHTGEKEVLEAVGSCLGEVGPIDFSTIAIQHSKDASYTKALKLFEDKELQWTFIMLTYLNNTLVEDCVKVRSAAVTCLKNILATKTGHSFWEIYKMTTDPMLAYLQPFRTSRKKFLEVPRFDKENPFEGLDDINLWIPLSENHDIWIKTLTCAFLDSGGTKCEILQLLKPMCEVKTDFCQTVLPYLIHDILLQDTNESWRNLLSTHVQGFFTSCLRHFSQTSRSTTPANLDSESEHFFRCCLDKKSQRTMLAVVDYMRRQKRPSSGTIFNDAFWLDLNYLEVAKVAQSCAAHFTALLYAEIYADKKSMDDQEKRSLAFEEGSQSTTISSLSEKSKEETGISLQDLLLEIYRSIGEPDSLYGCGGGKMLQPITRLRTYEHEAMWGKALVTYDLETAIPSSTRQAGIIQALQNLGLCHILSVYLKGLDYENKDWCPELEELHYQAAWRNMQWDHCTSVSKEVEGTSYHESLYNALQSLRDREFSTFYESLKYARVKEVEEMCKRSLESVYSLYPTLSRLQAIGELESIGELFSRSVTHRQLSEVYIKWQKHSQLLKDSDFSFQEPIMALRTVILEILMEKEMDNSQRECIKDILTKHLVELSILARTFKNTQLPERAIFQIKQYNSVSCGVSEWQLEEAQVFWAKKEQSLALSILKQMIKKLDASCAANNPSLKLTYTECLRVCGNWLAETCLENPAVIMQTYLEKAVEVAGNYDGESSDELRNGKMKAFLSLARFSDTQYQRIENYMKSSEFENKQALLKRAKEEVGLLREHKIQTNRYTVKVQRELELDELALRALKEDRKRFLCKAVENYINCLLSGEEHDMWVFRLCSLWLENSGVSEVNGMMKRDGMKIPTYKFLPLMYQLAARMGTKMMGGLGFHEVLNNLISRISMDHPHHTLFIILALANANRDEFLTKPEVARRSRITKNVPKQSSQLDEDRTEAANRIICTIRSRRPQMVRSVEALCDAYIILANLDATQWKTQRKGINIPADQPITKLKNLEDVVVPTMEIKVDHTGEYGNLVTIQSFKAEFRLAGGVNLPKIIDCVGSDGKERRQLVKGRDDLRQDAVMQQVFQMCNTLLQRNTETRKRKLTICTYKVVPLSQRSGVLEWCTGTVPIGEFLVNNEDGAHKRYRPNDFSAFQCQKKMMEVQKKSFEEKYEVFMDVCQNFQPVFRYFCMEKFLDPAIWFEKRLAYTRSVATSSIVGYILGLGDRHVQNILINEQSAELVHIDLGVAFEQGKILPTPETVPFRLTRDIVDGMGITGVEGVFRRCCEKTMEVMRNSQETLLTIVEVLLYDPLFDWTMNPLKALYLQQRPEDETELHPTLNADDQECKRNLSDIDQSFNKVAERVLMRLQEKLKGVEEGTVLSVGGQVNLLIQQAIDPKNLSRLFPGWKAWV
Outline: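 Cells received compounds in a 10-dose, 3-fold series from a 1 μM final top concentration, then 100 μM etoposide, for 1 hr at 37° C. They were then fixed with paraformaldehyde and permeabilized with 0.1% Triton X-100. After immunostaining, plates were scanned on an infrared imager.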

[3] = MCF-7 cells, etoposide 100 μM, 1 hr, pKAP1 readout
[4] = pKAP1 in etoposide-treated MCF-7 cells

IC50 ([1]; ATP 20 μM) [nM]	IC50 [2, 3] [nM]	IC50 ([1]; 20 μM ATP) [nM]	IC50 [2, 4] [nM]	Structure (SMILES)
< 0.5	1 to 100			Cc1ccc(S(=O)(=O)Nc2cc(-c3ccc4ncc5c(c4c3)C3(CCC3)C(=O)N5C)cnc2OCCCN2CCCCC2)cn1 [Example 142, 6-Methyl-N-(5-(3 methyl-2′-oxo-2′,3′-dihydrospiro[cyclobulane-1,1′-pyrrolo[2,3-c]quinolin]-8′-yl)-2-(3-(piperidin-1-yl)propoxy)pyridin-3-yl)pyridine-3-sulfonamide hydrochloride]
		< 0.5	1 to 100	Cc1ccccc1N1CC2(C1)C(=O)N(C)c1cnc3cc(F)c(-c4cnc(OCCNC(C)C)c(NS(C)(=O)=O)c4)cc3c12 [Example 528, N-(5-(7′-Fluoro-3′-methyl-2′-oxo-1-(o-tolyl)-2′,3′-dihydrospiro[azetidine-3,1′-pyrrolo[2,3-c]quinolin]-8′-yl)-2-(2-(isopropylamino)ethoxy)pyridin-3-yl)methanesulfonamide]
0.5 to 1	1 to 100			Cc1ccc(S(=O)(=O)Nc2cc(-c3ccc4ncc5c(c4c3)C3(CCC3)C(=O)N5C)cnc2OCCCN(C)C)cc1 [Example 145, N-(2-(3-(Dimethylamino)propoxy)-5-(3′-methyl-2′-oxo-2′,3′-dihydrospiro [cyclobulane-1,1′-pyrrolo[2,3-c]quinolin]-8′-yl)pyridin-3-yl)-4-methylbenzenesulfonamide hydrochloride]
< 0.5	1 to 100			CN(C)CCCOc1ncc(-c2ccc3ncc4c(c3c2)C2(CC2)C(=O)N4C)cc1NS(=O)(=O)c1ccc(OC(F)F)cc1 [Example 126, 4-(Difluoromethoxy)-N-(2-(3-(dimethylamino)propoxy)-5-(3′-methyl-2′-oxo-2′,3′-dihydrospiro[cyclopropane-1,1′-pyrrolo[2,3-c]quinolin]-8′-yl)pyridin-3-yl)benzenesulfonamide]
< 0.5	1 to 100			CN(C)CCCOc1ncc(-c2ccc3ncc4c(c3c2)C2(CCC2)C(=O)N4C)cc1NS(=O)(=O)c1ccns1 [Example 188, N-(2-(3-(Dimethylamino)propoxy)-5-(3′-methyl-2′-oxo-2′,3′-dihydrospiro [cyclobutane-1,1′-pyrrolo [2,3-c]quinolin]-8′-yl)pyridin-3-yl) isothiazole-5-sulfonamide hydrochloride]
1 to 100	1 to 100			CN(C)CCCOc1ncc(-c2cc3c4c(cnc3cc2F)N(C)C(=O)C42CC2)cc1NS(=O)(=O)C1CC1 [Example 66, N-(2-(3-(Dimethylamino)propoxy)-5-(7′-fluoro-3′-methyl-2′-oxo-2′,3′-dihydrospiro[cyclopropane-1,1′-pyrrolo[2,3-c]quinolin]-8′-yl)pyridin-3-yl) cyclopropanesulfonamide]
1 to 100	1 to 100			CN(C)CCCOc1ncc(-c2ccc3ncc4c(c3c2)C2(CCC2)C(=O)N4C)cc1NS(=O)(=O)N1CCOCC1 [Example 136, N-(2-(3-(Dimethylamino)propoxy)-5-(3′-methyl-2′-oxo-2′,3′-dihydrospiro [cyclobutane-1,1′-pyrrolo[2,3-c]quinolin]-8′-yl)pyridin-3-yl)morpholine-4-sulfonamide hydrochloride]

The remaining lines, values behind:

Structure (SMILES)	IC50 ([1]; ATP 20 μM) [nM]	IC50 [2, 3] [nM]	IC50 ([1]; 20 μM ATP) [nM]	IC50 [2, 4] [nM]
CCS(=O)(=O)Nc1cc(-c2cc3c4c(cnc3cc2F)N(C)C(=O)C42CCC2)cnc1N1CC(NC)C1 [Example 334]	0.5 to 1	1 to 100		
CC(C)NCCOc1ncc(-c2cc3c(cc2F)ncc2c3[C@]3(C[C@H](Nc4ccc(Cl)cc4)C3)C(=O)N2C)cc1NS(C)(=O)=O [Example 461, cis-N-(5-(3-((4-Chlorophenyl)amino)-7′-fluoro-3′-methyl-2′-oxo-2′,3′-dihydrospiro[cyclobutane-1,1′-pyrrolo[2,3-c]quinolin]-8′-yl)-2-(2-(isopropylamino)ethoxy)pyridin-3-yl)methanesulfonamide]			1 to 100	1 to 100
CN1C(=O)C2(CCC2)c2c1cnc1cc(F)c(-c3cnc(N4CC(N(C)C)C4)c(NS(=O)(=O)N(C)C)c3)cc21 [Example 316, 8′-{6-[3-(Dimethylamino)azetidin-1-yl]-5-[(dimethylsulfamoyl)amino]pyridin-3-yl}-7′-fluoro-3′-methyl-2′,3′-dihydrospiro[cyclobulane-1,1′-pyrrolo[2,3-c]quinoline]-2′-one hydrochloride]	1 to 100	1 to 100		
CN(C)CCCOc1ncc(-c2ccc3ncc4c(c3c2)C2(CCCC2)C(=O)N4C)cc1NS(=O)(=O)c1ccccc1 [Example 2, N-(2-(3-(Dimethylamino)propoxy)-5-(3′-methyl-2′-oxo-2′,3′-dihydrospiro[cyelopentane-1,1′-pyrrolo[2,3-c]quinolin]-8′-yl)pyridin-3-yl) benzenesulfonamide]	1 to 100	1 to 100		
CN1C(=O)C2(CCC2)c2c1cnc1ccc(-c3cnc(N4CCC(N(C)C)CC4)c(NS(C)(=O)=O)c3)cc21 [Example 224, N-(2-(4-(Dimethylamino)piperidin-1-yl)-5-(3′-methyl-2′-oxo-2′,3′-dihydrospiro[cyclobutane-1,1′-pyrrolo[2,3-c]quinolin]-8′-yl)pyridin-3-yl)methanesulfonamide]	< 0.5	1 to 100		
CC(C)NCCOc1ncc(-c2cc3c4c(cnc3cc2F)N(C)C(=O)C42CN(c3ccccc3)C2)cc1NS(C)(=O)=O [Example 519, N-(5-(7′-Fluoro-3′-methyl-2′-oxo-1-phenyl-2′,3′-dihydrospiro[azetidine-3,1′-pyrrolo[2,3-c]quinolin]-8′-yl)-2-(2-(isopropylamino)ethoxy)pyridin-3-yl)methanesulfonamide hydrochloride]			< 0.5	1 to 100
COCCN(C)CCCOc1ncc(-c2ccc3ncc4c(c3c2)C2(CCC2)C(=O)N4C)cc1NS(C)(=O)=O [Example 278, N-(2-(3-((2-Methoxyethyl)(methyl)amino)propoxy)-5-(3′-methyl-2′-oxo-2′,3′-dihydrospiro[cyclobutane-1,1′-pyrrolo[2,3-c]quinolin]-8′-yl)pyridin-3-yl)methanesulfonamide]	1 to 100	0.5 to 1		
COCc1ccc(N2CC3(C2)C(=O)N(C)c2cnc4cc(F)c(-c5cnc(OCCNC(C)C)c(NS(C)(=O)=O)c5)cc4c23)cc1 [Example 532, N-(5-(7′-Fluoro-1-(4-(methoxymethyl)phenyl)-3′-methyl-2′-oxo-2′,3′-dihydrospiro[azetidine-3,1′-pyrrolo[2,3-c]quinolin]-8′-yl)-2-(2-(isopropylamino)ethoxy)pyridin-3-yl)methanesulfonamide]			< 0.5	1 to 100
CC(C)NCCOc1ncc(-c2cc3c4c(cnc3cc2F)N(C)C(=O)C42CN(C3CCC3)C2)cc1NS(C)(=O)=O [Example 497, N-(5-(1-Cyclobutyl-7′-fluoro-3′-methyl-2′-oxo-2′,3′-dihydrospiro[azetidine-3,1′-pyrrolo[2,3-c]quinolin]-8′-yl)-2-(2-(isopropylamino)ethoxy)pyridin-3-yl)methanesulfonamide hydrochloride]			1 to 100	1 to 100
CN1C(=O)C2(CCC2)c2c1cnc1ccc(-c3cnc(OCCCN4CCCCC4)c(NS(=O)(=O)c4cscn4)c3)cc21 [Example 193, N-(5-(3′-Methyl-2′-oxo-2′,3′-dihydrospiro[cyclobutane-1,1′-pyrrolo[2,3-c]quinolin]-8′-yl)-2-(3-(piperidin-1-yl)propoxy)pyridin-3-yl)thiazole-4-sulfonamide hydrochloride]	0.5 to 1	1 to 100		
